From patent publication US5998405A, “Fused tropane-derivatives as neurotransmitter reuptake inhibitors” (NeuroSearch A/S, priority 1996, dated 1999) come the findings set out here.

Molecules are shown by their SMILES. Where a name gives a salt, the structure may show the parent alone.

Assay type in all cases: biochemical, Wistar rat
Assay [1] concerns the target T1, ^3 H-dopamine uptake in striatal synaptosomes (Rattus norvegicus, UniProt P23977).
T1 construct: Corpi striati from male Wistar rats (150-200 g) are homogenized; from tissue; host or cells: striatum (corpus striatum) of male Wistar rats, P2 synaptosomal pellet
The assay is described as follows: In vitro inhibition of 3H-dopamine (3H-DA) uptake in striatal synaptosomes. As to conditions: 3H-DA 1 nM, 25 min at 37° C. The text has this: (§1) The compounds of the invention have been tested for their ability to inhibit reuptake of dopamine(DA) noradrenaline(NA) and serotonine(5-HT) in synaptosomes.
(§2) Specific neurotransmitter transporters/uptake sites on nerve terminals presumably function to terminate neuronal signaling by removing the neurotransmitters dopamine, noradrenaline and serotonine, respectively, from the synaptic cleft. The activity of the transporter integral proteins can be measured in vitro by synaptosomal uptake of ^3 H-dopamine, ^3 H-noradrenaline and ^3 H-serotonine, respectively.
In Vitro Inhibition of ^3 H-dopamine (^3 H-DA) Uptake in Striatal Synaptosomes
(§3) Tissue preparations: Preparations are performed at 0-4° C. unless otherwise indicated. Corpi striati from male Wistar rats (150-200 g) are homogenized for 5-10 sec in 100 volumes of ice-cold 0.32M sucrose containing 1 mM pargyline using an Ultra-Turrax homogenizer. Monoamine oxidase activity will be inhibited in the presence of pargyline. The homogenate is centrifuged at 1000×g for 10 min. The resulting supernatant is then centrifuged at 27,000×g for 50 min and the supernatant is discarded. The pellet (P2) is resuspended in oxygenated (equilibrated with an atmosphere of 96% O2 : 4% CO2 for at least 30 min) Krebs-Ringer incubation buffer (8000 ml per g of original tissue) at pH 7.2 containing 122 mM NaCl, 0.16 mM EDTA, 4.8 mM KCl, 12.7 mM Na2 HPO4, 3.0 mM NaH2 PO4, 1.2 mM MgSO4, 1 mM CaCl2, 10 mM glucose and 1 mM ascorbic acid.
(§4) Assay: Aliquots of 4.0 ml tissue suspension are added to 100 μl of test solution and 100 μl of ^3 H-DA (1 nM, final concentration), mixed and incubated for 25 min at 37° C. Non-specific uptake is determined using benztropine (10 μM, final concentration). After incubation the samples are poured directly onto Whatman GF/C glass fibre filters under suction. The filters are then washed three times with 5 ml of ice-cold 0.9% (w/v) NaCl solution. The amount of radioactivity on the filters is determined by conventional liquid scintillation counting. Specific uptake is calculated as the difference between total uptake and non-specific uptake.
The test value is given as IC50 (the concentration (μM) of the test substance which inhibits the specific binding of ^3 H-DA by 50%).

Assay [2] addresses T2, ^3 H-noradrenaline uptake in hippocampal synaptosomes (Rattus norvegicus, UniProt Q63380).
T2 construct: Hippocampi from male Wistar rats (150-200 g) are homogenized; from tissue; host or cells: hippocampus of male Wistar rats, P2 synaptosomal pellet
Put plainly: In vitro inhibition of 3H-noradrenaline (3H-NA) uptake in hippocampal synaptosomes. As to conditions: 3H-NA 1 nM, 90 min at 37° C.
Text: as §1, §2
In Vitro Inhibition of ^3 H-noradrenaline (^3 H-NA) Uptake in Hippocampal Synaptosomes
as §3, with “Tissue preparation:” for “Tissue preparations:”, “indicated. Hippocampi” for “indicated. Corpi striati”, “buffer (2000” for “buffer (8000”, “MgSO4, 0.97” for “MgSO4, 1”
as §4, with “H-NA” for “H-DA”, “90” for “25”, “desipramine (1” for “benztropine (10”
The test value is given as IC50 (the concentration (μM) of the test substance which inhibits the specific binding of ^3 H-NA by 50%).

Assay [3] deals with T3, ^3 H-5-hydroxytryptamine (serotonin) uptake in cortical synaptosomes (Rattus norvegicus, UniProt P31652).
T3 construct: Cerebral cortices from male Wistar rats (150-200 g) are homogenized; from tissue; host or cells: cerebral cortex of male Wistar rats, P2 synaptosomal pellet
The assay is described as follows: In vitro inhibition of 3H-5-hydroxytryptamine (3H-5-HT, serotonin) uptake in cortical synaptosomes. The settings on record: 3H-5-HT 1 nM, 30 min at 37° C.
Text: as §1, §2
In Vitro Inhibition of ^3 H-5-hydroxytryptamine (^3 H-5-HT, Serotonin) Uptake in Cortical Synaptosomes
as §3, with “preparation:” for “preparations:”, “Cerebral cortices” for “Corpi striati”, “(1000” for “(8000”
as §4, with “H-5-HT” for “H-DA”, “30” for “25”, “citalopram (1” for “benztropine (10”
The test value is given as IC50 (the concentration (μM) of the test substance which inhibits the specific binding of ^3 H-5-HT by 50%).

T2 sequence (Q63380 1-617): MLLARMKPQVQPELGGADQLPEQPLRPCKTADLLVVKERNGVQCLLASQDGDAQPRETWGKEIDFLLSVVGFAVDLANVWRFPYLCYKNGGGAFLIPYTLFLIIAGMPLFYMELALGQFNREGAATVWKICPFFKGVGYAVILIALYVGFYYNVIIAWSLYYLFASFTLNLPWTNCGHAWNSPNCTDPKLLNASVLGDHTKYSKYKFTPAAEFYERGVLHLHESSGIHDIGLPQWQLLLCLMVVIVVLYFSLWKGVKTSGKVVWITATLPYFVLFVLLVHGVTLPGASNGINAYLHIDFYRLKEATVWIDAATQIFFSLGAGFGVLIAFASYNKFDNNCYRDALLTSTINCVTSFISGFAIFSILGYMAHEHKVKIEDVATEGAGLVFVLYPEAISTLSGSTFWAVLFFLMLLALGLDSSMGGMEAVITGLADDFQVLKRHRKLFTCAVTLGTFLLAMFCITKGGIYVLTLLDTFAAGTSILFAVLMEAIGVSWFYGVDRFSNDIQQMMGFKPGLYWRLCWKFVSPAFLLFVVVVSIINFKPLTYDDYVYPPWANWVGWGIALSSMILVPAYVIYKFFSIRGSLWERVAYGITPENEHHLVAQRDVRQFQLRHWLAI
T1 sequence (P23977 whole entry): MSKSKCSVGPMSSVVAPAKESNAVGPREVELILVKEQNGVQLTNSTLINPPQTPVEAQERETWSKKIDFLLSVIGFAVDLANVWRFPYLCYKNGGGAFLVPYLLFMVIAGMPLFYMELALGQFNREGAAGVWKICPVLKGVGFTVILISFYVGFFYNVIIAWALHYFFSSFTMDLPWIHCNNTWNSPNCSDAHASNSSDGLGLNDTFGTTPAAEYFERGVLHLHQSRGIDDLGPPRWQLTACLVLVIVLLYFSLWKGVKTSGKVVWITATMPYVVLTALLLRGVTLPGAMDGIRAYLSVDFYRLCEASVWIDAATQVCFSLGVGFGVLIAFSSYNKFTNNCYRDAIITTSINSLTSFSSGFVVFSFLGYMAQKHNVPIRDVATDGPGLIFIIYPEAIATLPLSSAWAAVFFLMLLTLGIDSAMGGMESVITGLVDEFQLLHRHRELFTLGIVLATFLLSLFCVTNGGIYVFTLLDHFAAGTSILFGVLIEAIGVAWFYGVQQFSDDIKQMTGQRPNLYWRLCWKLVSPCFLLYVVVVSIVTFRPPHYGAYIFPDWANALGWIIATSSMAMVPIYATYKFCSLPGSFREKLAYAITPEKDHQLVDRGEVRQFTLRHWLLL
T3 sequence (P31652 whole entry): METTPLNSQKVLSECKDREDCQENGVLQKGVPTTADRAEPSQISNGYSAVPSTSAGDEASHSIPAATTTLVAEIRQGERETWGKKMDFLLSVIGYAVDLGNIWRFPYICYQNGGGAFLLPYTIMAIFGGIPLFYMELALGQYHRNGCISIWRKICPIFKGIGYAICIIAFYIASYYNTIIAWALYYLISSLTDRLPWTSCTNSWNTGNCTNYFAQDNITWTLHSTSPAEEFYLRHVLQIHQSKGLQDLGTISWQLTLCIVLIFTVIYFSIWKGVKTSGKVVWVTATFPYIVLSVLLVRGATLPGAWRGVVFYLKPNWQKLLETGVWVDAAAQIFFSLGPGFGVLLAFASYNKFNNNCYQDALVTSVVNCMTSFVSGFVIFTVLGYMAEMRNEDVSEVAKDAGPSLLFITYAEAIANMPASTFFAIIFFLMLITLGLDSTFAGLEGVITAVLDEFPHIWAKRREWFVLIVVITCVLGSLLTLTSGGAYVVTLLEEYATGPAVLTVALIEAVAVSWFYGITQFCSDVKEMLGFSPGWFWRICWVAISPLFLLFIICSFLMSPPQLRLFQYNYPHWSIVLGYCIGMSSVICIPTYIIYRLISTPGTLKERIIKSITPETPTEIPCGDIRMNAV

By IC50 is commonly meant the midpoint of a concentration-inhibition curve. High values mean weaker potency, low ones greater potency. For `O=C1CCN2[C@H]3CC[C@@H]2[C@@H]1[C@@H](c1ccc(Cl)c(Cl)c1)C3` [(1S,2S,4S,7R)-2-(3,4-Dichlorophenyl)-8-azatricyclo[5.4.0.0^4,8]undecan-11-one], the IC50 in assay [1] was determined as 180 nM; in assay [2], 35 nM; in assay [3] it was 7.5 nM.

For `CON=C1CCN2[C@H]3CC[C@@H]2[C@@H]1[C@@H](c1ccc(Cl)c(Cl)c1)C3` [(1S,2S,4S,7R)-2-(3,4-Dichlorophenyl)-8-azatricyclo[5.4.0.0^4,8]undecan-11-one O-methyl-oxime], the IC50 was 12 nM in assay [1], 2 nM in assay [2] and 3.3 nM in assay [3].

`CON=C1CN2[C@H]3CC[C@@H]2[C@@H]1[C@@H](c1ccc(Cl)c(Cl)c1)C3` [(1S,3S,4S,8R)-3-(3,4-Dichlorophenyl)-7-azatricyclo[5.3.0.0^4,8]decan-5-one O-methyl-oxime]: the IC50 in assay [1] was 16 nM; in assay [2], 0.9 nM; in assay [3], 3.2 nM.

Regarding `OC1CN2[C@H]3CC[C@@H]2[C@@H]1[C@@H](c1ccc(Cl)c(Cl)c1)C3` (stereo partly drawn) [(1S,3S,4S,8R)-3-(3,4-Dichlorophenyl)-7-azatricyclo[5.3.0.0^4,8]decan-5-ol], the values for the IC50 in assay [1], in assay [2] and in assay [3] were 250 nM, 7.4 nM and 1.8 nM, respectively.

For the molecule `O=C1CN2[C@H]3CC[C@@H]2[C@@H]1[C@@H](c1ccc(Cl)c(Cl)c1)C3` [(1S,3S,4S,8R)-3-(3,4-Dichlorophenyl)-7-azatricyclo[5.3.0.0^4,8]decan-5-one], the IC50 in assay [1] was found to be 120 nM; in assay [2] it was 5.2 nM; in assay [3], 2.6 nM.

As to `CC(=O)OC1CN2[C@H]3CC[C@@H]2[C@@H]1[C@@H](c1ccc(Cl)c(Cl)c1)C3` (stereo partly drawn) [(1S,3S,4S,8R)-3-(3,4-Dichlorophenyl)-7-azatricyclo[5.3.0.0^4,8]dec-5-yl acetate fumarate], the IC50 in assay [1] was found to be 210 nM; in assay [2] it was 6.1 nM; in assay [3], 7.5 nM.

For `OC1CCN2[C@H]3CC[C@@H]2[C@@H]1[C@@H](c1ccc(Cl)c(Cl)c1)C3` (stereo partly drawn) [(1S,2S,4S,7R)-2-(3,4-Dichlorophenyl)-8-azatricyclo[5.4.0.0^4,8]undecan-11-ol], the results for the IC50 in assay [1], in assay [2] and in assay [3] were 75 nM, 4.1 nM and 2.8 nM, respectively.

Consider `COC1CN2[C@H]3CC[C@@H]2[C@@H]1[C@@H](c1ccc(Cl)c(Cl)c1)C3` (stereo partly drawn) [(1S,3S,4S,8R)-3-(3 ,4-Dichlorophenyl)-5-methoxy-7-azatricyclo[5.3.0.0^4,8]decane], for which the IC50 amounted to 22 nM in assay [1], 1.4 nM in assay [2] and 0.1 nM in assay [3].
